Assay results published in patent US20100099561A1, “HETEROBICYCLIC ALKYLTHIO-BRIDGED ISOXAZOLINES” (E.I. DU PONT DE NEMOURS AND COMPANY, priority 2008, published 2010).

What was measured:
Type in all cases: in vivo
[1] = test system: pigweed (Amaranthus retroflexus); test: Test A postemergence, pigweed; details: 0 to 100 scale (0 no effect, 100 complete control)
Method in brief: (§1)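 Species planted together in a loam soil and sand blend received compound either as a preemergence soil spray or as a postemergence treatment when 2–10 cm tall with one to two leaves. About ten days later, injury was visually rated relative to untreated plants on a 0–100 scale.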

[2] = test system: pigweed (Amaranthus retroflexus); test: Test A preemergence, pigweed; details: 0 to 100 scale (0 no effect, 100 complete control)
Method in brief: as §1

[3] = test system: umbrella sedge (Cyperus difformis); test: Test B flooded paddy test, umbrella sedge; details: Flood, scale 0 to 100
Method in brief: (§2)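 Compounds were added directly to paddy water over 2-leaf-stage plants in pots flooded 3 cm above soil, water depth maintained. Visual injury scored against controls after 13 to 15 days in greenhouse, 0 (none) to 100 (complete control); dash indicates no result.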

[4] = test system: velvetleaf (Abutilon theophrasti); test: Test A preemergence, velvetleaf; details: 0 to 100 scale (0 no effect, 100 complete control)
Method in brief: as §1

[5] = test system: large crabgrass (Digitaria sanguinalis); test: Test A postemergence, large crabgrass; details: 0 to 100 scale (0 no effect, 100 complete control)
Method in brief: as §1

[6] = test system: giant foxtail (Setaria faberi); test: Test A preemergence, giant foxtail; details: 0 to 100 scale (0 no effect, 100 complete control)
Method in brief: as §1

[7] = test system: velvetleaf (Abutilon theophrasti); test: Test A postemergence, velvetleaf; details: 0 to 100 scale (0 no effect, 100 complete control)
Method in brief: as §1

[8] = test system: barnyardgrass (Echinochloa crus-galli); test: Test A preemergence, barnyardgrass; details: 0 to 100 scale (0 no effect, 100 complete control)
Method in brief: as §1

[9] = test system: barnyardgrass (Echinochloa crus-galli); test: Test B flooded paddy test, barnyardgrass; details: Flood
Method in brief: as §2

[10] = test system: wheat (Triticum aestivum); test: Test A postemergence, wheat; details: 0 to 100 scale (0 no effect, 100 complete control)
Method in brief: as §1

rice (Oryza sativa) = test: Test B flooded paddy test, rice; details: Flood, scale 0 to 100
Method in brief: as §2

[11] = test system: large crabgrass (Digitaria sanguinalis); test: Test A preemergence, large crabgrass; details: 0 to 100 scale (0 no effect, 100 complete control)
Method in brief: as §1

[12] = test system: morningglory (Ipomoea spp.); test: Test A postemergence, morningglory; details: 0 to 100 scale (0 no effect, 100 complete control)
Method in brief: as §1

corn (Zea mays) [13] = test: Test A postemergence, corn; details: 0 to 100 scale (0 no effect, 100 complete control)
Method in brief: as §1

[14] = test system: morningglory (Ipomoea spp.); test: Test A preemergence, morningglory; details: 0 to 100 scale (0 no effect, 100 complete control)
Method in brief: as §1

[15] = test system: barnyardgrass (Echinochloa crus-galli); test: Test A postemergence, barnyardgrass; details: 0 to 100 scale (0 no effect, 100 complete control)
Method in brief: as §1

[16] = test system: giant foxtail (Setaria faberi); test: Test A postemergence, giant foxtail; details: 0 to 100 scale (0 no effect, 100 complete control)
Method in brief: as §1

[17] = test system: ducksalad (Heteranthera limosa); test: Test B flooded paddy test, ducksalad; details: Flood, scale 0 to 100
Method in brief: as §2

corn (Zea mays) [18] = test: Test A preemergence, corn; details: 0 to 100 scale (0 no effect, 100 complete control)
Method in brief: as §1

[19] = test system: wheat (Triticum aestivum); test: Test A preemergence, wheat; details: 0 to 100 scale (0 no effect, 100 complete control)
Method in brief: as §1

[20] = 250 g ai/ha, scale 0 to 100 (0 no effect, 100 complete control)

## CC1(C)CC([S+]([O-])Cc2c(C(F)(F)C(F)(F)F)nc3n(c2=O)CCCS3)=NO1 (centres unmarked) [Compound 40]
[1]; 125 g ai/ha
  Plant response rating, Pigweed: 0
[1]; 500 g ai/ha
  Plant response rating, Pigweed: 0
[2]; 125 g ai/ha
  Plant response rating, Pigweed: 0
[2]; 500 g ai/ha
  Plant response rating, Pigweed: 0
[3]; 31 g ai/ha
  Plant response rating, Sedge, Umbrella: 0
[3]; 62 g ai/ha
  Plant response rating, Sedge, Umbrella: 0
[3]; 125 g ai/ha
  Plant response rating, Sedge, Umbrella: 0
[3]; 250 g ai/ha
  Plant response rating, Sedge, Umbrella: 0
[4]; 125 g ai/ha
  Plant response rating, Velvetleaf: 0
[4]; 500 g ai/ha
  Plant response rating, Velvetleaf: 0
[5]; 125 g ai/ha
  Plant response rating, Crabgrass, Large: 0
[5]; 500 g ai/ha
  Plant response rating, Crabgrass, Large: 40
[6]; 125 g ai/ha
  Plant response rating, Foxtail, Giant: 0
[6]; 500 g ai/ha
  Plant response rating, Foxtail, Giant: 80
[7]; 125 g ai/ha
  Plant response rating, Velvetleaf: 0
[7]; 500 g ai/ha
  Plant response rating, Velvetleaf: 0
[8]; 125 g ai/ha
  Plant response rating, Barnyardgrass: 0
[8]; 500 g ai/ha
  Plant response rating, Barnyardgrass: 60
[9]; 31 g ai/ha, scale 0 to 100
  Plant response rating, Barnyardgrass: 0
[9]; 62 g ai/ha, scale 0 to 100
  Plant response rating, Barnyardgrass: 0
[9]; 125 g ai/ha, scale 0 to 100
  Plant response rating, Barnyardgrass: 0
[9]; [20]
  Plant response rating, Barnyardgrass: 0
[10]; 125 g ai/ha
  Plant response rating, Wheat: 0
[10]; 500 g ai/ha
  Plant response rating, Wheat: 50
Rice (Oryza sativa); 31 g ai/ha
  Plant response rating, Rice: 0
Rice (Oryza sativa); 62 g ai/ha
  Plant response rating, Rice: 0
Rice (Oryza sativa); 125 g ai/ha
  Plant response rating, Rice: 0
Rice (Oryza sativa); 250 g ai/ha
  Plant response rating, Rice: 0
[11]; 125 g ai/ha
  Plant response rating, Crabgrass, Large: 0
[11]; 500 g ai/ha
  Plant response rating, Crabgrass, Large: 70
[12]; 125 g ai/ha
  Plant response rating, Morningglory: 0
[12]; 500 g ai/ha
  Plant response rating, Morningglory: 10
Corn (Zea mays) [13]; 125 g ai/ha
  Plant response rating, Corn: 0
Corn (Zea mays) [13]; 500 g ai/ha
  Plant response rating, Corn: 20
[14]; 125 g ai/ha
  Plant response rating, Morningglory: 0
[14]; 500 g ai/ha
  Plant response rating, Morningglory: 0
[15]; 125 g ai/ha
  Plant response rating, Barnyardgrass: 10
[15]; 500 g ai/ha
  Plant response rating, Barnyardgrass: 70
[16]; 125 g ai/ha
  Plant response rating, Foxtail, Giant: 0
[16]; 500 g ai/ha
  Plant response rating, Foxtail, Giant: 50
[17]; 31 g ai/ha
  Plant response rating, Ducksalad: 0
[17]; 62 g ai/ha
  Plant response rating, Ducksalad: 0
[17]; 125 g ai/ha
  Plant response rating, Ducksalad: 0
[17]; 250 g ai/ha
  Plant response rating, Ducksalad: 0
Corn (Zea mays) [18]; 125 g ai/ha
  Plant response rating, Corn: 0
Corn (Zea mays) [18]; 500 g ai/ha
  Plant response rating, Corn: 0
[19]; 125 g ai/ha
  Plant response rating, Wheat: 0
[19]; 500 g ai/ha
  Plant response rating, Wheat: 0

## CC1(C)CC([S+]([O-])Cc2c(C(F)(F)C(F)(F)F)nc3n(c2=O)CCS3)=NO1 (centres unmarked) [Compound 41]
[1]; 125 g ai/ha
  Plant response rating, Pigweed: 0
[1]; 500 g ai/ha
  Plant response rating, Pigweed: 0
[2]; 125 g ai/ha
  Plant response rating, Pigweed: 0
[2]; 500 g ai/ha
  Plant response rating, Pigweed: 0
[3]; 31 g ai/ha
  Plant response rating, Sedge, Umbrella: 0
[3]; 62 g ai/ha
  Plant response rating, Sedge, Umbrella: 0
[3]; 125 g ai/ha
  Plant response rating, Sedge, Umbrella: 0
[3]; 250 g ai/ha
  Plant response rating, Sedge, Umbrella: 0
[4]; 125 g ai/ha
  Plant response rating, Velvetleaf: 0
[4]; 500 g ai/ha
  Plant response rating, Velvetleaf: 0
[5]; 125 g ai/ha
  Plant response rating, Crabgrass, Large: 0
[5]; 500 g ai/ha
  Plant response rating, Crabgrass, Large: 50
[6]; 125 g ai/ha
  Plant response rating, Foxtail, Giant: 0
[6]; 500 g ai/ha
  Plant response rating, Foxtail, Giant: 80
[7]; 125 g ai/ha
  Plant response rating, Velvetleaf: 0
[7]; 500 g ai/ha
  Plant response rating, Velvetleaf: 0
[8]; 125 g ai/ha
  Plant response rating, Barnyardgrass: 0
[8]; 500 g ai/ha
  Plant response rating, Barnyardgrass: 60
[9]; 31 g ai/ha, scale 0 to 100
  Plant response rating, Barnyardgrass: 0
[9]; 62 g ai/ha, scale 0 to 100
  Plant response rating, Barnyardgrass: 0
[9]; 125 g ai/ha, scale 0 to 100
  Plant response rating, Barnyardgrass: 0
[9]; [20]
  Plant response rating, Barnyardgrass: 0
[10]; 125 g ai/ha
  Plant response rating, Wheat: 0
[10]; 500 g ai/ha
  Plant response rating, Wheat: 40
Rice (Oryza sativa); 31 g ai/ha
  Plant response rating, Rice: 0
Rice (Oryza sativa); 62 g ai/ha
  Plant response rating, Rice: 0
Rice (Oryza sativa); 125 g ai/ha
  Plant response rating, Rice: 0
Rice (Oryza sativa); 250 g ai/ha
  Plant response rating, Rice: 0
[11]; 125 g ai/ha
  Plant response rating, Crabgrass, Large: 0
[11]; 500 g ai/ha
  Plant response rating, Crabgrass, Large: 80
[12]; 125 g ai/ha
  Plant response rating, Morningglory: 0
[12]; 500 g ai/ha
  Plant response rating, Morningglory: 10
Corn (Zea mays) [13]; 125 g ai/ha
  Plant response rating, Corn: 0
Corn (Zea mays) [13]; 500 g ai/ha
  Plant response rating, Corn: 40
[14]; 500 g ai/ha
  Plant response rating, Morningglory: 0
[15]; 125 g ai/ha
  Plant response rating, Barnyardgrass: 30
[15]; 500 g ai/ha
  Plant response rating, Barnyardgrass: 70
[16]; 125 g ai/ha
  Plant response rating, Foxtail, Giant: 10
[16]; 500 g ai/ha
  Plant response rating, Foxtail, Giant: 60
[17]; 31 g ai/ha
  Plant response rating, Ducksalad: 0
[17]; 62 g ai/ha
  Plant response rating, Ducksalad: 0
[17]; 125 g ai/ha
  Plant response rating, Ducksalad: 0
[17]; 250 g ai/ha
  Plant response rating, Ducksalad: 0
Corn (Zea mays) [18]; 125 g ai/ha
  Plant response rating, Corn: 0
Corn (Zea mays) [18]; 500 g ai/ha
  Plant response rating, Corn: 0
[19]; 125 g ai/ha
  Plant response rating, Wheat: 0
[19]; 500 g ai/ha
  Plant response rating, Wheat: 0
